Values of other authors as cited in US7847105B2, “Methods and compounds for preparing CC-1065 analogs” (Medarex, Inc., priority 2005, dated 2010).

Tests used:
[1] = test system: experimental animals; settings: reason why it cannot be used in humans
[2] = both in vitro and in experimental animals

**Q.** Which results are given for CC-1065?
**A.** toxicity in experimental animals [1]: causes delayed death; antitumor and antimicrobial activity [2]: potent antitumor and antimicrobial activity
